From patent US10023568B2, “Naphthyridine derivatives useful as αvβ6 integrin antagonists” (GlaxoSmithKline Intellectual Property Development Limited, priority 2013, dated 2018)
Values after ≈ are worked out from the molar mass of the structure shown.

Assays:
physchem = conditions: kinetic from dmso stock
Description: The Chemiluminescent nitrogen detection (CLND) kinetic solubility was measured according to N. Bhattachar et. al. J. Pharm. Biomed.

[1] = molecular target: T1, human soluble αvβ6 protein (Homo sapiens, UniProt P06756+P18564); assay: Fluorescence Polarisation Assay, binding of human soluble αvβ6 protein to an RGD-containing peptide; conditions: read-out: affinity (pIC50) for the human αvβ6 protein in the Fluorescence Polarisation Assay (converted)
T1 construct: The expressed protein contained amino acid 31-987 of αv followed by a Tev cleavage site; Tev cleavage site (C); 6His tag (C); Prescission protease site (C); FLAG tag (C); made in house; host or cells: baculovirus expression system (pFastBac dual construct)
Source text: Binding of human soluble αvβ6 protein to an RGD-containing Peptide by Fluorescence Polarisation Assay:
The extracellular domains of αv and β6 were co-expressed from a pFastBac dual construct using the baculovirus expression system. […] The protein was secreted into the media on expression; it was purified using diafiltration followed by purification using the His tag followed by the FLAG tag and then size exclusion chromatography. […] A fluorescent binding peptide based on LAPβ3 was synthesised chemically, having the sequence Ac-[…](Cy3B)-NH2. An assay buffer of 25 mM HEPES pH7.4, 150 mM NaCl, 1 mM CHAPS and […] was used. To black low volume 384 well plates were added […] of test compound in 100% DMSO, followed by […] αvβ6 protein. Plates were incubated at room temperature for 15 minutes before addition of […] fluorescent RGD-containing peptide. […] For active antagonists in the assay, data were fitted to a 4 parameter logistic equation for IC50 determinations.

αvβ6 = molecular target: T2, αvβ6 (Homo sapiens, UniProt P06756+P18564); assay: Cell Adhesion Assay K562-αvβ6 (LAP-b1); format: cell-based; conditions: K562-αvβ6 cells, ligand LAP-b1, 2 mM MgCl2; read-out: affinity in the cell Adhesion Assays αvβ6 pIC50 (converted)
T2 construct: expressed in transfected cells; host or cells: K562-αvβ6
Description: (§1) The following cell lines were used, with ligands in brackets: K562-α5β1 (Fibronectin), K562-αvβ3 (LAP-b1), K562-αvβ5 (Vitronectin), K562-αvβ6 (LAP-b1), K562-αvβ8 (LAP-b1). The divalent cation used to facilitate adhesion was 2 mM MgCl2. Adhesion was quantified by cell labelling with the fluorescent dye BCECF-AM (Life Technologies), where cell suspensions at 6×10^6 cells/mL were incubated with […] of 30 mM BCECF-AM at 37° C. for 10 minutes, before dispensing into the assay plate. At the assay conclusion cells that adhered were lysed using 50 μL/well of 0.5% Triton X-100 in H2O to release fluorescence. Fluorescence intensity was detected using an Envision® plate reader (Perkin Elmer). For active antagonists in the assay, data were fitted to a 4 parameter logistic equation for IC50 determinations.

αvβ3 = molecular target: T3, αvβ3 (Homo sapiens, UniProt P05106+P06756); assay: Cell Adhesion Assay K562-αvβ3 (LAP-b1); format: cell-based; conditions: K562-αvβ3 cells, ligand LAP-b1, 2 mM MgCl2; read-out: affinity in the cell Adhesion Assays αvβ3 pIC50 (converted)
T3 construct: expressed in transfected cells; host or cells: K562-αvβ3
Description: as §1

αvβ5 = molecular target: T4, αvβ5 (Homo sapiens, UniProt P06756+P18084); assay: Cell Adhesion Assay K562-αvβ5 (Vitronectin); format: cell-based; conditions: K562-αvβ5 cells, ligand Vitronectin, 2 mM MgCl2; read-out: affinity in the cell Adhesion Assays αvβ5 pIC50 (converted)
T4 construct: expressed in transfected cells; host or cells: K562-αvβ5
Description: as §1

αvβ8 = molecular target: T5, αvβ8 (Homo sapiens, UniProt P06756+P26012); assay: Cell Adhesion Assay K562-αvβ8 (LAP-b1); format: cell-based; conditions: K562-αvβ8 cells, ligand LAP-b1, 2 mM MgCl2; read-out: affinity in the cell Adhesion Assays αvβ8 pIC50 (converted)
T5 construct: expressed in transfected cells; host or cells: K562-αvβ8
Description: as §1

T1 sequence (P06756 31-987): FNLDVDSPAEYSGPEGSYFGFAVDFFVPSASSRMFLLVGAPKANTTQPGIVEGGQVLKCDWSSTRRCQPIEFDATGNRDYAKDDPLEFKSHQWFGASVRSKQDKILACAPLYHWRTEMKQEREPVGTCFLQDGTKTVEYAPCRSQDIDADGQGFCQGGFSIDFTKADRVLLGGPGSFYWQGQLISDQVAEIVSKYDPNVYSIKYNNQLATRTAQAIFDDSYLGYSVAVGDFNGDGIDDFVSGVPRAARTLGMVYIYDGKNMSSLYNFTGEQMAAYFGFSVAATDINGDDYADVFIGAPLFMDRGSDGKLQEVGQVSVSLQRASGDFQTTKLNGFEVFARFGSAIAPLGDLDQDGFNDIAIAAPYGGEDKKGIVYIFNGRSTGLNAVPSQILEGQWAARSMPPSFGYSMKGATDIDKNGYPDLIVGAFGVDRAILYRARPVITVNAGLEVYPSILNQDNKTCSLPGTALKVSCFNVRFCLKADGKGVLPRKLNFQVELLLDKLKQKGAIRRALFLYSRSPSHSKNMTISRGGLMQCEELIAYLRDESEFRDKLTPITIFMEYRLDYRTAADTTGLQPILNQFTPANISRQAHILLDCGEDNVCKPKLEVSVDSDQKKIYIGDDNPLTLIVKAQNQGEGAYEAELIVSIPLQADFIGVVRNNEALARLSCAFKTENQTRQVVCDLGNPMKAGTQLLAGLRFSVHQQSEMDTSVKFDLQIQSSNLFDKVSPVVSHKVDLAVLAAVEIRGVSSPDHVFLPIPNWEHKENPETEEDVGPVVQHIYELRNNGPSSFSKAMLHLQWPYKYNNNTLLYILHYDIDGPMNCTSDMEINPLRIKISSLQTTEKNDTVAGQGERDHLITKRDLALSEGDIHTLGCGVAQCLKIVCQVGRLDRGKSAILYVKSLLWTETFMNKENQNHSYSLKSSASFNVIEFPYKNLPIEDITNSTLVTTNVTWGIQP
T1 sequence (P18564 21-707): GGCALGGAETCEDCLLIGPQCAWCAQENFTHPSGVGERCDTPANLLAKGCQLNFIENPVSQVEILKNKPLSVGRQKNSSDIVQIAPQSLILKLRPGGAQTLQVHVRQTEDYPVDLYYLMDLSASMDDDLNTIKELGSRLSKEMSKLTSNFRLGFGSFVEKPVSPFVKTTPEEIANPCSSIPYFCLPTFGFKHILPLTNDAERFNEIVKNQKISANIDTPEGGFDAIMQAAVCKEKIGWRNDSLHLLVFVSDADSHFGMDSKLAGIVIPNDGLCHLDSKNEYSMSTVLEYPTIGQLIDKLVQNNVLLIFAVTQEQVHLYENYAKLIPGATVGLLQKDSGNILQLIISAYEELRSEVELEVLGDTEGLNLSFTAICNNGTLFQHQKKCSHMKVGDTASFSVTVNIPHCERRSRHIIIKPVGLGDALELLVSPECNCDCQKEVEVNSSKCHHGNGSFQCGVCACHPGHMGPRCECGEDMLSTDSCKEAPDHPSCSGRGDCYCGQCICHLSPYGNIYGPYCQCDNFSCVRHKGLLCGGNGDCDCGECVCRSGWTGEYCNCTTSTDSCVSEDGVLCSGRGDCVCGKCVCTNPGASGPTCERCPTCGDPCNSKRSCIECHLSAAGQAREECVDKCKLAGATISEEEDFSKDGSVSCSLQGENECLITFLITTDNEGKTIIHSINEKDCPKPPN
T4 sequence (P06756 31-1048): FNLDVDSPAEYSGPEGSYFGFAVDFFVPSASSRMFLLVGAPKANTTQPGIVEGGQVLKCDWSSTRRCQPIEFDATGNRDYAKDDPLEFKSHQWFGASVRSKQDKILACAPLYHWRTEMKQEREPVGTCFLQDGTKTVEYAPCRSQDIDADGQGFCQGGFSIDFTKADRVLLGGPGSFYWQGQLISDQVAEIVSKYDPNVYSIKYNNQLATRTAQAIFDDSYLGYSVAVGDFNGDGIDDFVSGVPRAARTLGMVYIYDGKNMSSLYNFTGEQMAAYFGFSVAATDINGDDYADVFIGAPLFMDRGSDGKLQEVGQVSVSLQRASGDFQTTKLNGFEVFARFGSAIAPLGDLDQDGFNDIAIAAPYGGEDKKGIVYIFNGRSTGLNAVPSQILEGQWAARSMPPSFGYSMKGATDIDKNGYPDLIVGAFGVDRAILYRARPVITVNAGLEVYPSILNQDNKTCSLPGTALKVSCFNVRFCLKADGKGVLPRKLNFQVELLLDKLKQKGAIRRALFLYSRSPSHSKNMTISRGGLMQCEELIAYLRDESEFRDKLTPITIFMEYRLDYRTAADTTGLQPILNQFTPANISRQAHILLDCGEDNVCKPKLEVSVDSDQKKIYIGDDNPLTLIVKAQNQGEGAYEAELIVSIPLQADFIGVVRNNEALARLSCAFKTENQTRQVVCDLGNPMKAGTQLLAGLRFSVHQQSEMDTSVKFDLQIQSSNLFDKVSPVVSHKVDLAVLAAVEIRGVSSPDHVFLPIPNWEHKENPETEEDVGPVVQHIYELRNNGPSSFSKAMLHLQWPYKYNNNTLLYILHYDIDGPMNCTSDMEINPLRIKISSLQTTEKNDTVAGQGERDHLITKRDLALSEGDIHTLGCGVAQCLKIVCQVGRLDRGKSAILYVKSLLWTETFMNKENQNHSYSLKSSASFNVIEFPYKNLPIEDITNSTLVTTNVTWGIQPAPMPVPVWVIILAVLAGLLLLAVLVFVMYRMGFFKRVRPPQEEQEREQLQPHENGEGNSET
T4 sequence (P18084 24-799): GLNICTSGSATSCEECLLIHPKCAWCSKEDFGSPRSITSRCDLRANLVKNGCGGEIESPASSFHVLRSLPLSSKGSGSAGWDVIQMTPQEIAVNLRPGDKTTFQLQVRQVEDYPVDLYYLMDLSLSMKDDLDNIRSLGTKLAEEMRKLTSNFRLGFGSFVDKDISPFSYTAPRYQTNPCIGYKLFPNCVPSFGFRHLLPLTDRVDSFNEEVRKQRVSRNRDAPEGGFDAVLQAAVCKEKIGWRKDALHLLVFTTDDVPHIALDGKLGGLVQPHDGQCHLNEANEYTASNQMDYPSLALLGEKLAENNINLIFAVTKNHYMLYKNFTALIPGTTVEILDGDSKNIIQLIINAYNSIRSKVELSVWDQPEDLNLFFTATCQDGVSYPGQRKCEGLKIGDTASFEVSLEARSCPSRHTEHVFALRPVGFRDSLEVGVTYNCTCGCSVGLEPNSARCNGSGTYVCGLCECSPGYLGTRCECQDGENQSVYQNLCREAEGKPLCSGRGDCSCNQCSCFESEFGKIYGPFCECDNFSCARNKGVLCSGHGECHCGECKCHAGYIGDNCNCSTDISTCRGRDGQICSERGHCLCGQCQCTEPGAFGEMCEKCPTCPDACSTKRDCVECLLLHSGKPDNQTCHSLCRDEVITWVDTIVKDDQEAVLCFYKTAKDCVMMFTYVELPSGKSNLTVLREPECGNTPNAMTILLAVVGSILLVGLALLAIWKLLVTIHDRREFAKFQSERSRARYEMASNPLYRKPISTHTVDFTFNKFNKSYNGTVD
T2 sequence (P06756 31-1048): as the sequence (P06756 31-1048) above
T2 sequence (P18564 22-788): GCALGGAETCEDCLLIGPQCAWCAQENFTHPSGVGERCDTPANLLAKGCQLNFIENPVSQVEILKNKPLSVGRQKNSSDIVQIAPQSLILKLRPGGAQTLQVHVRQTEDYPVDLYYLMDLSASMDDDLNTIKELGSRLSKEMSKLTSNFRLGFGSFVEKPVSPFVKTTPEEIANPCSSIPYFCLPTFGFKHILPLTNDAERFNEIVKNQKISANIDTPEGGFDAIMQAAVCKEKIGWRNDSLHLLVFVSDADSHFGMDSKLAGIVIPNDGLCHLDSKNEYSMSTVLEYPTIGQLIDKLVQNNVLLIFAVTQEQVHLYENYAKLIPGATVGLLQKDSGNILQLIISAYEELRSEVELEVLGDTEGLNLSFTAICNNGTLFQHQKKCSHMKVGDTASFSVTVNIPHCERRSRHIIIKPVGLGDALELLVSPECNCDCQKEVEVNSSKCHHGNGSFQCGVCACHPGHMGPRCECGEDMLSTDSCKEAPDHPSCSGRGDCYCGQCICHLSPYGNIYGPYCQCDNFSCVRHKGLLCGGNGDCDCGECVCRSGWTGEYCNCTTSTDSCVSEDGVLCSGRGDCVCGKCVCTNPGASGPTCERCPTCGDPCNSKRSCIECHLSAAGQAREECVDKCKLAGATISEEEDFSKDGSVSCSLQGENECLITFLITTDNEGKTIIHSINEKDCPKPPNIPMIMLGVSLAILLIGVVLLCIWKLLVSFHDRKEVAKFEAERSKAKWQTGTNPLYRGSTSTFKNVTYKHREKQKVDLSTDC
T3 sequence (P06756 31-1048): as the sequence (P06756 31-1048) above
T3 sequence (P05106 27-788): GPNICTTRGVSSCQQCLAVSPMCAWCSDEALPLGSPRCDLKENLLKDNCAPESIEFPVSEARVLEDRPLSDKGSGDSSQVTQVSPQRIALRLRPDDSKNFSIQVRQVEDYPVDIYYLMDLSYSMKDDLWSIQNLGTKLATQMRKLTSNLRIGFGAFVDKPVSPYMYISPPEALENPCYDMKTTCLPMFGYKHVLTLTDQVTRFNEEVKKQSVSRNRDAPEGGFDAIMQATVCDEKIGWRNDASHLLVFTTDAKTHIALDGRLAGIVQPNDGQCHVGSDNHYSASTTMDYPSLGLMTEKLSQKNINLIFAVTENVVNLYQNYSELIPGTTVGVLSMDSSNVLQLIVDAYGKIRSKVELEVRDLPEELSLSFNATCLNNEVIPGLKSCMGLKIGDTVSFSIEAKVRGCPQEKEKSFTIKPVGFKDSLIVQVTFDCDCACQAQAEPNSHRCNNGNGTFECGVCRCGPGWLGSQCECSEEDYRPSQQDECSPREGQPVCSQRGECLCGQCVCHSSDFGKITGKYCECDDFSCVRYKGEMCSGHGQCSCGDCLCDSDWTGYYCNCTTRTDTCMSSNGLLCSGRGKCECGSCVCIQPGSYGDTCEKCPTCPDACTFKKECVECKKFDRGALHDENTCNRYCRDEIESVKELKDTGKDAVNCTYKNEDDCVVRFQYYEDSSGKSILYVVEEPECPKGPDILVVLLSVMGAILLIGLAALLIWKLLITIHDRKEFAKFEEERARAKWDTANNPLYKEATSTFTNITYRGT

| SMILES | solubility kinetic (physchem) | IC50 [1] | IC50 (αvβ6) | IC50 (αvβ3) | IC50 (αvβ5) | IC50 (αvβ8) |
| --- | --- | --- | --- | --- | --- | --- |
| CCc1cc(C)nn1-c1cccc(C(CC(=O)O)CN2CC[C@@H](CCc3ccc4c(n3)NCCC4)C2)c1 (stereo partly drawn) [Example 3, 3-(3-(5-Ethyl-3-methyl-1H-pyrazol-1-yl)phenyl)-4-((R)-3-(2-(5,6,7,8-tetrahyrdro-1,8-naphthyridin-2-yl)ethyl)pyrrolidin-1-yl)butanoic acid] | 276 µM (≈ 138 µg/mL) | 6.31 nM | 7.94 nM | 1000 nM | 126 nM | 20 nM |
| O=C(O)CC(CN1CC[C@@H](CCc2ccc3c(n2)NCCC3)C1)c1cccc(-n2cccn2)c1 (stereo partly drawn) [Example 4, 3-(3-(1H-Pyrazol-1-yl)phenyl)-4-((R)-3-(2-(5,6,7,8-tetrahydro-1,8-naphthyridin-2-yl)ethyl)pyrrolidin-1-yl)butanoic acid] | 388 µM (≈ 178 µg/mL) |  |  |  |  |  |
| CCc1cc(CC)n(-c2cccc(C(CC(=O)O)CN3CC[C@@H](CCc4ccc5c(n4)NCCC5)C3)c2)n1 (stereo partly drawn) [Example 5, 3-(3-(3,5-Diethyl-1H-pyrazol-1-yl)phenyl)-4-((R)-3-(2-(5,6,7,8-tetrahydro-1,8-naphthyridin-2-yl)ethyl)pyrrolidin-1-yl)butanoic acid] | 470 µM (≈ 242 µg/mL) | 15.8 nM | 7.94 nM | 794 nM | 251 nM | 39.8 nM |
| Cc1nn(-c2cccc(C(CC(=O)O)CN3CC[C@@H](CCc4ccc5c(n4)NCCC5)C3)c2)c(C)c1F (stereo partly drawn) [Example 6, 3-(3-(4-Fluoro-3,5-dimethyl-1H-pyrazol-1-yl)phenyl)-4-((R)-3-(2-(5,6,7,8-tetrahydro-1,8-naphthyridin-2-yl)ethyl)pyrrolidin-1-yl)butanoic acid] | 437 µM (≈ 221 µg/mL) | 20 nM | 7.94 nM | 1580 nM | 251 nM | 50.1 nM |
